The results in this text go back to patent US20070270421A1, “Novel pyridine Derivative and Pyrimidine Derivative (1)” (priority 2004, published 2007).

The test system of test [1] is Human pancreatic cancer cells (SUIT-2). Nature of the test: Inhibitory activity against migration of human pancreatic cancer cells (SUIT-2). The class given is cell-based. To be noted: SUIT-2, Transwell, HGF stimulation, 24 hrs, read-out: IC50 (concentration necessary to inhibit the cell migration activity by 50%). Here is the method: Human pancreatic cancer cells (SUIT-2) were suspended in a 1% FBS-containing RPMI1640 medium (purchased from Sigma) to prepare a cell suspension (8×10^5 cells/ml). To the lower compartment of Transwell (purchased from COSTAR, Production No. 3422) was added 600 μl of a 1% FBS-containing RPMI1640 medium. To the upper compartment were added 50 μl of the above cell suspension and 25 μl of the test substance dissolved in dimethyl sulfoxide (diluted with the 1% FBS-containing RPMI1640 medium), followed by culturing in a 5% CO2 incubator (37° C.) for 1 hr. After the culture, to the upper compartment of each Transwell was added 25 μl of human recombinant hepatocyte growth factor (HGF, purchased from Wako Pure Chemical Industry, Production No. 22949) diluted to 280 ng/ml with a 1% FBS-containing RPMI1640 medium, followed by culturing in a 5% CO2 incubator (37° C.) for 24 hrs. The cells adhering to the lower compartment of each well were counted in five fields by a phase contrast microscope (200×) to calculated an average adhering cell number. While defining the average adhering cell number of a well supplied with […] and no test substance as 100% cell migration activity and the average adhering cell number of a well supplied with no HGFR and no test substance as 0% cell migration activity, the cell migration activity percent (%) was calculated for each well. The concentration of the test substance was varied at several levels to calculate the cell migration activity percent (%) for respective cases, and to calculate the concentration of the test substance necessary to inhibit the cell migration activity by 50% (IC50).

The subject of test [2] is Human gastric cancer cells (MKN-45) tumor. Nature of the test: Inhibitory activity against the tumor growth of human gastric cancer cells (MKN-45) transplanted in mice. Particulars: oral, twice every day, fifth day, tumor volume relative to control group. It counts as in vivo, BALB/c (nu/nu) mice. Here is the method:
Human gastric cancer cells (MNK-45) were suspended in HBSS (purchased from GIBCO BRL). The cell suspension (5×10^7 cells/ml) was transplanted under the right flank skin of seven-week-old female BALB/c (nu/nu) mice at a volume of 0.1 ml. When tumor volume of the site transplanted with MNK-45 cells grew to 100-200 mm^3, mice were grouped so that the groups might be equalized in average tumor volume. The test substance was suspended in 0.5% methylcellulose, a mixed solution of hydrochloric acid and glucose (0.1N hydrochloric acid:5% glucose=1:9) or a mixed solution of dimethyl sulfoxide-Tween-glucose (dimethyl sulfoxide:Tween 80:5% glucose (containing equimolar hydrochloric acid to the test substance)=7:13:80), were administered orally to the mice twice every day. The tumor volumes were determined at the fifth day after the initiation of the administration of the test substances. The major axis and the minor axis of tumor were measured by a caliper to calculate 1/2×(major axis×minor axis×minor axis) for the tumor volume. The experiment was conducted using 10 mice in the control group (solvent-administered group) and 5 mice in test substance-administered group. The ratio in tumor volume of the group for administrating the test substance relative to that of the control group was defined as a tumor proliferation rate (%).

For test [3], the system named is Human umbilical vein endothelial cells (HUVECs). Nature of the test: Inhibitory activity against the growth of vascular endothelial cells stimulated with hepatocyte growth factor. The class given is cell-based. To be noted: HUVEC, HGF stimulation, third day, Cell Counting Kit-8, read-out: IC50 (concentration necessary to inhibit cell proliferation activity by 50%). How it is done:
Human umbilical vein endothelial cells (HUVECs) were isolated according to the reported method (Shin Seikagaku Jikken Koza, “Cell culturing techniques”, p 197-202), and then cultured in a 5% CO2 incubator (37° C.) using EGM-2 medium (purchased from Clonetics) until the cells reached confluency.
HUVECs were suspended in a serum-free medium for endothelial cell culture (SFM, purchased from GIBCO RBL) containing 2% FBS. The cell suspension (2×10^4 cells/ml) was put in a cell culturing 96-well plate (purchased from NUNC, Production No. 167008) at 0.1 ml/well, and then cultured in a 5% CO2 incubator (37° C.) overnight. […] After the incubation, using a Plate Reader MTP-500 (Corona Electric), the absorbance of each well was determined at a measurement wavelength of 450 nm and a reference wavelength of 660 nm. While defining the absorbance of a well supplied with HGF and no test substance as 100% cell proliferation activity and the absorbance of the well supplied with no test substance and no HGF as 0% cell proliferation activity, the cell proliferation activity ratio (%) was calculated for each cell. […]
For orientation: Formazan colour is commonly taken as a measure of viable cells.

Consider `O=C(Cc1ccc(F)cc1)NC(=S)Nc1ccc(Oc2ccnc(NC(=O)N3CCCC3)c2)c(F)c1` [Example 13, 4-(2-Fluoro-4-{3-[2-(4-fluorophenyl)acetyl]thioureido}phenoxy)-2-[(pyrrolidin-1-yl)carbonylamino]pyridine], for which the IC50 in test [1] amounted to 3.2 nM; in test [3] it was 73 nM. In addition, the entries for the “Tumor proliferation rate (%)” value in test [2] (Dose 10 mg/kg/time), in test [2] (Dose 30 mg/kg/time) and in test [2] (Dose 100 mg/kg/time) were 68%, 47% and 26%, respectively.
As to `O=C(CC(=O)Nc1ccc(Oc2ccnc(NC(=O)N3CCCC3)c2)c(F)c1)Nc1ccc(F)cc1` [Example 56, N-(4-Fluorophenyl)-N′-(3-fluoro-4-{2-[(pyrrolidine-1-carbonyl)amino]pyridin-4-yloxy}phenyl)malonamide], the IC50 in test [1] was found to be 38 nM.
Consider `O=C(Cc1ccc(F)cc1)NC(=S)Nc1ccc(Oc2cc(NC(=O)N3CCCC3)ncn2)c(F)c1` [Example 3, Pyrrolidine-1-carboxylic acid [6-(2-fluoro-4-{3-[2-(4-fluorophenyl)acetyl]thioureido}phenoxy)pyrimidin-4-yl]amide], for which the IC50 amounted to 50 nM in test [1] and 190 nM in test [3]. The “Tumor proliferation rate (%)” value was determined as 69% in test [2] (Dose 30 mg/kg/time) and 37% in test [2] (Dose 100 mg/kg/time).
